Results reported in publication PMC5725799, “Comparative binding properties of the tau PET tracers THK5117, THK5351, PBB3, and T807 in postmortem Alzheimer brains” (Alzheimer's Research & Therapy, 2017).

Tested on: tau
Assay: ^11C-THK5351 autoradiography and competition on large frozen AD brain sections
Assay type: binding, human
Design: Total Binding / NSP Binding: unit not given here
Method: Adjacent sections were used for autoradiography with ^11C-THK5351, ^11C-PBB3, and ^18F-T807. The frozen sections were allowed to reach room temperature, incubated for 30 minutes at room temperature with ^11C-THK5351 (0.4–0.56 nM; specific activity 356–532 GBq/μmol) or ^11C-PBB3 (0.25–0.34 nM; specific activity 442–794 GBq/μmol) or for 55 minutes at room temperature with ^18F-T807 (0.04 nM; specific activity 281 GBq/μmol). We used 10 μM unlabeled THK5351, 10 μM unlabeled PBB3, and 10 μM unlabeled T807 to determine the extent of nonspecific binding for each tracer. The sections were rinsed three times for 5 minutes each with cold binding buffer, followed by a quick dip in cold distilled water. The sections were dried and exposed for 1 h (for ^11C-THK5351 and ^11C-PBB3) or for 3 h (^18 F-T807) on a phosphor imaging plate and then read using the BAS-2500 phosphor imager.
For all the autoradiography studies, the regions of interest were drawn manually on the autoradiogram using multigauge software and were used for the semiquantitative analyses. Photostimulated luminescence per square millimeter (PSL/mm^2) was transformed to picomoles per cubic millimeter using a transformation factor that took into account the resolution of the image, the pixel value for the concentration of ligand, and the thickness of the sections: (PSL/mm^2 value)/([pixel value per pmol] × [(resolution/1000)^2] × [cryosection thickness]/1000).

[1] = AD1, Basal ganglia, vs Unlabelled T807
[2] = AD1, Basal ganglia, vs Unlabelled THK5351
[3] = AD1, Frontal cortex, vs Unlabelled T807
[4] = AD1, Frontal cortex, vs Unlabelled THK5351
[5] = AD1, Insula, vs Unlabelled T807
[6] = AD1, Insula, vs Unlabelled THK5351
[7] = AD1, Temporal cortex, vs Unlabelled T807
[8] = AD1, Temporal cortex, vs Unlabelled THK5351
[9] = AD2, Basal ganglia, vs Unlabelled T807
[10] = AD2, Basal ganglia, vs Unlabelled THK5351
[11] = AD2, Frontal cortex, vs Unlabelled T807
[12] = AD2, Frontal cortex, vs Unlabelled THK5351
[13] = AD2, Insula, vs Unlabelled T807
[14] = AD2, Insula, vs Unlabelled THK5351
[15] = AD2, Temporal cortex, vs Unlabelled T807
[16] = AD2, Temporal cortex, vs Unlabelled THK5351
[17] = AD3, Basal ganglia, vs Unlabelled T807
[18] = AD3, Basal ganglia, vs Unlabelled THK5351
[19] = AD3, Frontal cortex, vs Unlabelled T807
[20] = AD3, Frontal cortex, vs Unlabelled THK5351
[21] = AD3, Insula, vs Unlabelled T807
[22] = AD3, Insula, vs Unlabelled THK5351
[23] = AD3, Temporal cortex, vs Unlabelled T807
[24] = AD3, Temporal cortex, vs Unlabelled THK5351

## [11CH3]Nc1ccc(-c2ccc3cc(OC[C@H](O)CF)ccc3n2)cn1 [^11C-THK5351, (S)-1-fluoro-3-(2-(6-([^11C]methylamino)pyridin-3-yl)quinolin-6-yloxy)propan-2-ol]
[1]
  % of specific binding: 41%
  NSP Binding: 10866
  Specific Binding: 7578
  Total Binding: 18444
[2]
  % of specific binding: 40%
  NSP Binding: 7577
  Specific Binding: 5118
  Total Binding: 12694
[3]
  % of specific binding: 24%
  NSP Binding: 15579
  Specific Binding: 4789
  Total Binding: 20368
[4]
  % of specific binding: 40%
  NSP Binding: 8920
  Specific Binding: 5917
  Total Binding: 14837
[5]
  % of specific binding: 25%
  NSP Binding: 13255
  Specific Binding: 4421
  Total Binding: 17677
[6]
  % of specific binding: 33%
  NSP Binding: 8376
  Specific Binding: 4085
  Total Binding: 12461
[7]
  % of specific binding: 14%
  NSP Binding: 14662
  Specific Binding: 2328
  Total Binding: 16990
[8]
  % of specific binding: 29%
  NSP Binding: 8202
  Specific Binding: 3386
  Total Binding: 11587
[9]
  % of specific binding: 38%
  NSP Binding: 11830
  Specific Binding: 7177
  Total Binding: 19008
[10]
  % of specific binding: 68%
  NSP Binding: 6390
  Specific Binding: 13566
  Total Binding: 19956
[11]
  % of specific binding: 18%
  NSP Binding: 14824
  Specific Binding: 3344
  Total Binding: 18167
[12]
  % of specific binding: 69%
  NSP Binding: 6755
  Specific Binding: 15381
  Total Binding: 22136
[13]
  % of specific binding: 28%
  NSP Binding: 13363
  Specific Binding: 5076
  Total Binding: 18439
[14]
  % of specific binding: 59%
  NSP Binding: 6886
  Specific Binding: 9948
  Total Binding: 16834
[15]
  % of specific binding: 39%
  NSP Binding: 13589
  Specific Binding: 8683
  Total Binding: 22271
[16]
  % of specific binding: 59%
  NSP Binding: 6673
  Specific Binding: 9437
  Total Binding: 16110
[17]
  % of specific binding: 47%
  NSP Binding: 10872
  Specific Binding: 9821
  Total Binding: 20693
[18]
  % of specific binding: 38%
  NSP Binding: 6733
  Specific Binding: 4207
  Total Binding: 10939
[19]
  % of specific binding: 38%
  NSP Binding: 14792
  Specific Binding: 8959
  Total Binding: 23751
[20]
  % of specific binding: 48%
  NSP Binding: 7079
  Specific Binding: 6431
  Total Binding: 13509
[21]
  % of specific binding: 29%
  NSP Binding: 13574
  Specific Binding: 5447
  Total Binding: 19021
[22]
  % of specific binding: 37%
  NSP Binding: 6903
  Specific Binding: 3972
  Total Binding: 10875
[23]
  % of specific binding: 34%
  NSP Binding: 12673
  Specific Binding: 6479
  Total Binding: 19153
[24]
  % of specific binding: 36%
  NSP Binding: 6717
  Specific Binding: 3813
  Total Binding: 10529
